Measured values from patent publication US11926595B1, “2-(2-ethoxyethoxy)-6-(4-hydroxyphenyl)-4-(4-methylphenyl)nicotinonitrile as an antimicrobial compound” (KING FAISAL UNIVERSITY, priority 2023, dated 2024).

Experiments:
[1] = tested on: Staphylococcus aureus; assay: Antimicrobial screening by agar dilution, Staphylococcus aureus; type: cell-based; conditions: after 10, 20, 40 and 60 minutes at all dilutions 1:100, 1:200, 1:400, 1:800
Experimental: (§1) The antibacterial properties of the synthesized compound 2-(2-ethoxyethoxy)-6-(4-hydroxyphenyl)-4-(4-methylphenyl)nicotinonitrile were studied by the method of agar dilution. Test solutions of each compound was prepared in concentration of 1% using dimethylformamide as a solvent then they are diluted in physiological solution to obtain the final experimental dilutions 1: 100, 1:200, 1:400, 1:800. The effect of these substances are compared with furacillin in a controllable study. The testing microbes used were gram positive bacteria Staphylococcus aureus, gram negative bacteria Pseudomonas aeruginosa and Escherichia coli and Candida albicans fungus. The experiments used for this survey were meat-pentonlu agar (EPA) for cultivation of bacteria and Saburo environment for the fungus. Each experiment used 1 mL of test solution on each plate […]. Two drops of emulsified with microbes feel were added. All experimental samples were taken from the agar after 10, 20, 40, 60 minutes in the environment on the basis of Patrk planted. The bacteria were cultivated at a temperature of 37° C. for 1 day and the mushroom was kept in a thermostat for 2 hours at a temperature of 28° C. Then results were checked.

[2] = tested on: Pseudomonas aeruginosa; assay: Antimicrobial screening by agar dilution, Pseudomonas aeruginosa; type: cell-based; conditions: after 10, 20, 40 and 60 minutes at all dilutions 1:100, 1:200, 1:400, 1:800
Experimental: as §1

[3] = tested on: Escherichia coli; assay: Antimicrobial screening by agar dilution, Escherichia coli; type: cell-based; conditions: after 10, 20, 40 and 60 minutes at all dilutions 1:100, 1:200, 1:400, 1:800
Experimental: as §1

[4] = tested on: Candida albicans; assay: Antimicrobial screening by agar dilution, Candida albicans; type: cell-based; conditions: after 10, 20, 40 and 60 minutes at all dilutions 1:100, 1:200, 1:400, 1:800
Experimental: as §1

## CCOCCOc1nc(-c2ccc(O)cc2)cc(-c2ccc(C)cc2)c1C#N [2-(2-ethoxyethoxy)-6-(4-hydroxyphenyl)-4-(4-methylphenyl)nicotinonitrile]
other
  melting point: 175 to 177 °C
[1]
  inhibition activity (summary in words): highest inhibition activity
[2]
  inhibition activity (summary in words): highest inhibition activity
[3]
  inhibition activity (summary in words): highest inhibition activity
[4]
  inhibition activity (summary in words): highest inhibition activity
